Values joined by “and” are separate entries in the source; they are usually repeats but may differ in a detail not shown here. Equal values may be shown once.
Experiments:
Type in all cases: cell-based, human
[1] = system: resting responder T cells; assay: Third party MLR of resting responder T cells sorted after PXD exposure; settings: 10 μM PXD added day 5 of first MLR; sorted day 8, restimulated without PXD
Experimental: Mixed lymphocyte reactions were established using unrelated, HLA-mismatched healthy donor blood samples as donor/recipient pairs. Stimulator PBMC were γ-irradiated with 30 Gy as described previously (Zenhausen et al., 2007). Responder PBMC were washed twice in PBS, 5,6-carboxy-succinimidyl-fluorescein-ester (CSFE)-labelled (1.25 μM, Sigma) at room temperature for 5 minutes, and washed twice in PBS/10% FCS. Two hundred thousand stimulator and responder cells were added per well at a 1:1 ratio in a 96 U-well plate in T cell medium. Stimulator and responder cells were also plated alone, and all cells were cultured in a 5% CO2, 37° C. humidified incubator. Viability, CFSE fluorescence and cell surface antigen expression were determined by flow cytometry. Cells were washed twice in FACS buffer (PBS, 2% FCS), and resuspended in 50 μL/5×10^5 cells and analysed on a Becton Dickinson LSRII FACS analyser using FlowJo (TreeStar) software.
The experiment described above was expanded by determining the effect of PXD exposure on responder T cells that had previously been exposed to, but not activated in a MLR. Two consecutive sets of MLRs were set up, mixing responder T cells and γ-irradiated stimulator cells on day 0, adding 10 μM PXD or 0.1% DMSO on day 5, and analysing proliferation and viability of responder T cells on day 8. […]

[2] = system: primary AML blasts; assay: Viability of leukemic blasts from bone marrow samples, AV/PI staining
Experimental: (§1) FIG. 6. Sensitivity of different cell types to PXD. Different cell types were incubated with 10 μM PXD for 24 h and viability was determined by AV/PI staining and reported as [% viable blasts after PXD exposure]/[% viable blasts after 0.1% DMSO exposure]. Percentage values are as follows: AML-derived HL60: 16±5 and HL60p°: 54±6, ALL-derived MOLT-4: 44±4, MM-derived U226: 59±6 and RPMI 8226: 12±4, primary AML blasts: 64±5, primary ALL blasts: 23±4, normal BM: 89±5, proliferating T cells: 69±4, resting T cells: 98±6. Results from cell lines are presented as the average±SEM of at least 3 separate experiments, results from bone marrow samples are presented as the average±SD of single experiments performed in duplicate.
(§2) Bone marrow samples from AML (n=22) and ALL (n=8) patients, containing more than 80% blasts, were selected from the tissue bank. Bone marrow samples were thawed, centrifuged at 1400 rpm in a Multifuge 3 s (Heraeus) for 4 min, washed twice in RPMI and resuspended in RPMI+10% FCS. Aliquots were incubated for 24 h in the presence of 0.1% DMSO (control) or 10 μM PXD and examined for morphology and viability. […] was determined by AV/PI staining as [% viable blasts after PXD treatment]/[% viable blasts in control sample].
(§3) Cells were centrifuged at 1400 rpm in a Multifuge 3 s (Heraeus) for 4 min at room temperature, washed in phosphate buffered saline solution, pH 7.3 (PBS) and resuspended in Annexin V binding buffer. Small aliquots (0.5-1×10^6 cells) were transferred to 1.5 mL tubes and spun at 1400 rpm in a Multifuge 3 s (Heraeus) for 4 min. Most supernatant was removed and 5 μL PI and 5 μL FITC-labelled AV was added to the wet pellets which were vortexed. After 30 min in the dark on ice, 500 μl of AV binding buffer was added, the cells were centrifuged for 2 min at 1400 rpm, washed once with AV binding buffer and resuspended in 300 μL of AV binding buffer in FACS tubes. Staining was analyzed by flow cytometry using a Becton Dickinson Canto II FACS analyser using FlowJo (TreeStar) software.

[3] = system: primary ALL blasts; assay: as above
Experimental: as §1, §2, §3

[4] = system: resting T cells; assay: Apoptosis/viability by Annexin V/propidium iodide staining; settings: 10 μM PXD for 24 h
Experimental: (§4) Immediately prior to experiments, frozen PBMC were thawed, centrifuged at 1400 rpm in a Multifuge 3 s (Heraeus) for 4 min, washed in RPMI+10% FCS and resuspended in T cell medium (RPMI+10% FCS+10 μM 2-mercaptoethanol (Sigma), 1×glutamine, 1×non-essential amino acids (Gibco)) at 2×10^6 cells/mL. Cells (2×10^5) were activated by adding 10 μg/mL anti-CD3 and 5 μg/mL anti-CD28 and 20 U/mL IL-2 per well. Cells were incubated at 37° C. in a humidified incubator maintained at 5% CO2 for 4 to 5 days until large numbers of large spherical aggregates or “bursts” of lymphocytes were observed. Activated proliferating T cells were pooled from the wells for further experiments. Resting T cells were incubated for the same length of time but in the presence of 20 U/mL IL-2 only.
(§5) Cells were centrifuged at 1400 rpm in a Multifuge 3 s (Heraeus) for 4 min at room temperature, washed in phosphate buffered saline solution, pH 7.3 (PBS) and resuspended in Annexin V binding buffer. Small aliquots (0.5-1×10^6 cells) were transferred to 1.5 mL tubes and spun at 1400 rpm in a Multifuge 3 s (Heraeus) for 4 min. […] Staining was analyzed by flow cytometry using a Becton Dickinson Canto II FACS analyser using FlowJo (TreeStar) software.
(§6) The extent of apoptosis in resting and proliferating T cells was determined after 24 h exposure to 10 μM PXD (FIG. 2) by AV/PI staining. […]

[5] = as above; settings: human, resting T cells from PBMC; resting T cells, 10 μM PXD for 24 h; read-out: [% viable blasts after PXD exposure]/[% viable blasts after 0.1% DMSO exposure]
Experimental: as §4, §5, §6

## Oc1ccc(C2=Cc3ccc(O)cc3OC2)cc1 [PXD, Isoflav-3-en-4′,7-diol]
[1]
  viability and functionality of non-proliferating T cells: affects neither the viability nor the functionality
[2]; Homo sapiens, 24 h, primary AML blasts (average), 10 μM PXD for 24 h, read-out: [% viable blasts after PXD exposure]/[% viable blasts after 0.1% DMSO exposure]
  viability at 10 µM: 64 ± 5%
[2]; individual AML patient bone marrow samples, 10 μM PXD 24 h, relative to 0.1% DMSO control
  % Viable Blasts: 23% and 32% and 36% and 39% and 44% and 49% and 55% and 57% and 58% and 62% and 67% and 71% and 75% and 88% and 92% and 95% and 96% and 97% and 99% and 20%
[3]; Homo sapiens, 24 h, primary ALL blasts (average), 10 μM PXD for 24 h, read-out: [% viable blasts after PXD exposure]/[% viable blasts after 0.1% DMSO exposure]
  viability at 10 µM: 23 ± 4%
[3]; individual ALL patient bone marrow samples, 10 μM PXD 24 h, relative to 0.1% DMSO control
  % Viable Blasts: 25% and 29% and 37% and 40% and 7% and 14% and 16% and 19%
[4]
  percentage of viable resting T cells (AV/PI): unaltered
[5]
  viability at 24 h, 10 μM: 98 ± 6%

— US20120039917A1, “IMMUNO[…]” (priority 2008, published 2012)
